According to ChEMBL document CHEMBL1128555, “Derivatives of 5-[[1-(4'-carboxybenzyl)imidazolyl]methylidene]hydantoins as orally active angiotensin II receptor antagonists” (J Med Chem, 1995):

Columns and labels:
[1] = target: Angiotensin II receptor type-1 (Oryctolagus cuniculus) (UniProt P34976); assay: Inhibition of angiotensin II induced contraction in rabbit aortic ring, activity is expressed as IC50
[2] = target: Angiotensin II receptor (AT-1) type-1 (Rattus norvegicus) (UniProt P29089+P25095); assay: Antihypertensive activity in renal hypertensive rats (RHR) at 30 mg/Kg dose after oral administration; type: functional, organism-based
[3] = target: T1, Angiotensin II receptor (AT-1) type-1 (Rattus norvegicus, UniProt P29089+P25095); assay: Binding affinity expressed as IC50 to the Angiotensin II receptor, type 1, from rat liver membrane
T1 sequence (P29089 whole entry): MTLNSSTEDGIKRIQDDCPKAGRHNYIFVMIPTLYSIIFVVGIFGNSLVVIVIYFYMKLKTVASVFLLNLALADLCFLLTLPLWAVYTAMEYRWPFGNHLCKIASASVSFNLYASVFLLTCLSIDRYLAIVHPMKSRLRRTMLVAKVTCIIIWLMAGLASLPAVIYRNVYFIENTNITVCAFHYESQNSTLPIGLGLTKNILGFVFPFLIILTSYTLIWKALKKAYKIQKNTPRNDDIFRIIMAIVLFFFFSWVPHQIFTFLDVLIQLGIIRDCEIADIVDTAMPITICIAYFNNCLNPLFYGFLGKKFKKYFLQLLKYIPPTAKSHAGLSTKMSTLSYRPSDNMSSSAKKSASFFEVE
T1 sequence (P25095 whole entry): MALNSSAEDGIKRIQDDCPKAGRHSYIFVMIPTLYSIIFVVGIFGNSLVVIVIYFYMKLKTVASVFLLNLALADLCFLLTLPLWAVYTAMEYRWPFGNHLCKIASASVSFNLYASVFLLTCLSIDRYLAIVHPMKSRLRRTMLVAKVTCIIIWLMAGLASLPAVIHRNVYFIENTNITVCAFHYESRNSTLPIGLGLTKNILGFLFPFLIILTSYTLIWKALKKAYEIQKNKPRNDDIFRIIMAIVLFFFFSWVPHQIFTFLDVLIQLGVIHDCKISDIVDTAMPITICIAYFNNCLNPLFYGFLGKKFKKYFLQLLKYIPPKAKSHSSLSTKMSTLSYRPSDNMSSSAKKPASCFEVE

Sequence of Angiotensin II receptor type-1 (Oryctolagus cuniculus) (P34976 whole entry, looked up): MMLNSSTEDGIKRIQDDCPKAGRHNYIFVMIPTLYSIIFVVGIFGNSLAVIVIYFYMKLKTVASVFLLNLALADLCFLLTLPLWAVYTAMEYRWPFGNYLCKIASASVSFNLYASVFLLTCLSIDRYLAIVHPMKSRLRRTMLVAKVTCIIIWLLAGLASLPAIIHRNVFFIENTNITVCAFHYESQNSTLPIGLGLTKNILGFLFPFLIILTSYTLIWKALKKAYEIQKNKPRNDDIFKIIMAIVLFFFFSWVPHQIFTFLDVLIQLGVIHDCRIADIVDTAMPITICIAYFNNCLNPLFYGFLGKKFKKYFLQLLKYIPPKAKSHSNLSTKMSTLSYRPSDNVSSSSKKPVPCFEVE

SMILES: CCCCc1ncc(/C=C2/C(=O)N(CCCC)C(=O)N2Cc2cccs2)n1Cc1ccc(C(=O)OC)cc1
- IC50 [1]: 370 nM
- Maximum blood pressure change [2]: -28%
- IC50 [3]: 3.4 nM

SMILES: CCCCc1ncc(/C=C2/C(=O)N(CCCC)C(=O)N2Cc2c(C)noc2C)n1Cc1ccc(C(=O)OC)cc1
- IC50 [3]: 198 nM

SMILES: CCCCc1ncc(/C=C2/C(=O)N(CCCC)C(=O)N2Cc2ccc(O)c(O)c2)n1Cc1ccc(C(=O)OC)cc1
- IC50 [3]: 4.9 nM

SMILES: CCCCc1ncc(/C=C2/C(=O)N(CCCC)C(=O)N2C=C(C)C)n1Cc1ccc(C(=O)OC)cc1
- IC50 [3]: 11.1 nM

SMILES: CCCCc1ncc(/C=C2/C(=O)N(CCCC)C(=O)N2Cc2ccsc2)n1Cc1ccc(C(=O)OC)cc1
- Maximum blood pressure change [2]: -36%
- IC50 [3]: 4.8 nM

SMILES: CCCCc1ncc(/C=C2/C(=O)NC(=O)N2CCCC)n1Cc1ccc(C(=O)OC)cc1
- IC50 [1]: 30 nM
- Maximum blood pressure change [2]: -11%
- IC50 [3]: 3.5 nM

SMILES: CCCCc1ncc(/C=C2/C(=O)N(CCCC)C(=O)N2Cc2nn[nH]n2)n1Cc1ccc(C(=O)OC)cc1
- IC50 [3]: 41.7 nM

SMILES: CCCCc1ncc(/C=C2/C(=O)N(COC)C(=O)N2Cc2csc(C)n2)n1Cc1ccc(C(=O)OC)cc1
- IC50 [3]: 47.8 nM

SMILES: CCCCc1ncc(/C=C2\C(=O)N(CCCC)C(=O)N2Cc2cccs2)n1Cc1ccc(C(=O)O)cc1
- IC50 [3]: 0.6 nM

SMILES: CCCCc1ncc(/C=C2/C(=O)N(CCCC)C(=O)N2Cc2ccc(C(=O)OC)s2)n1Cc1ccc(C(=O)OC)cc1
- IC50 [3]: 4.2 nM

SMILES: CCCCc1ncc(/C=C2/C(=O)N(CCCC)C(=O)N2CC2CCCCC2)n1Cc1ccc(C(=O)OC)cc1
- IC50 [3]: 3.3 nM

SMILES: CCCCc1ncc(/C=C2/C(=O)N(CCCC)C(=O)N2C(c2ccccc2)c2ccccc2)n1Cc1ccc(C(=O)OC)cc1
- IC50 [3]: 884 nM

SMILES: CCCCc1ncc(/C=C2/C(=O)N(CCCC)C(=O)N2Cc2ccc(OC)cc2)n1Cc1ccc(C(=O)OC)cc1
- IC50 [3]: 9.8 nM

SMILES: CCCCc1ncc(/C=C2/C(=O)N(CCCC)C(=O)N2Cc2ccc(Br)s2)n1Cc1ccc(C(=O)OC)cc1
- IC50 [3]: 17.8 nM

SMILES: CCCCc1ncc(/C=C2/C(=O)N(CCCC(F)(F)F)C(=O)N2Cc2csc(C)n2)n1Cc1ccc(C(=O)OC)cc1
- IC50 [3]: 70 nM

SMILES: CCCCc1ncc(/C=C2/C(=O)N(CCCC)C(=O)N2CCc2ccsc2)n1Cc1ccc(C(=O)OC)cc1
- IC50 [3]: 14.6 nM

SMILES: CCCCc1ncc(/C=C2/C(=O)N(CCCC)C(=O)N2Cc2ccc3ccccc3c2)n1Cc1ccc(C(=O)OC)cc1
- IC50 [3]: 104 nM

SMILES: CCCCc1ncc(/C=C2/C(=O)N(CCCC)C(=O)N2Cc2ccccc2)n1Cc1ccc(C(=O)OC)cc1
- IC50 [3]: 12.4 nM

SMILES: CCCCc1ncc(/C=C2/C(=O)N(CCCC)C(=O)N2CCc2ccccc2)n1Cc1ccc(C(=O)OC)cc1
- IC50 [3]: 31 nM

SMILES: CCCCc1ncc(/C=C2/C(=O)N(CCCC)C(=O)N2Cc2cc(Br)cs2)n1Cc1ccc(C(=O)OC)cc1
- IC50 [3]: 21.9 nM

SMILES: CCCCc1ncc(/C=C2/C(=O)N(CCCC)C(=O)N2Cc2cccc(Cl)c2)n1Cc1ccc(C(=O)OC)cc1
- IC50 [3]: 117 nM

SMILES: CCCCc1ncc(/C=C2/C(=O)N(CCCC)C(=O)N2Cc2cccc(C)c2)n1Cc1ccc(C(=O)OC)cc1
- IC50 [3]: 18.5 nM

SMILES: CCCCc1ncc(/C=C2/C(=O)NC(=O)N2CCCC)n1Cc1ccc(-c2ccccc2C(=O)OC)cc1
- IC50 [3]: 15.9 nM

SMILES: CCCCc1ncc(/C=C2/C(=O)N(CCCO)C(=O)N2Cc2csc(C)n2)n1Cc1ccc(C(=O)OC)cc1
- IC50 [3]: 47.9 nM

SMILES: CCCCc1ncc(/C=C2\C(=O)NC(=O)N2CCCC)n1Cc1ccc(-c2nn[nH]n2)cc1
- IC50 [3]: 2.5 nM

SMILES: CCCCc1ncc(/C=C2/C(=O)NC(=O)N2Cc2ccccc2)n1Cc1ccc(C(=O)O)cc1
- IC50 [1]: 35 nM
- IC50 [3]: 4 nM

SMILES: CCCCc1ncc(/C=C2/C(=O)N(CCCC)C(=O)N2Cc2c[nH]c(C)n2)n1Cc1ccc(C(=O)OC)cc1
- IC50 [3]: 245 nM

SMILES: CCCCc1ncc(/C=C2/C(=O)N(CCCC)C(=O)N2Cc2cc(C)cs2)n1Cc1ccc(C(=O)O)cc1
- IC50 [1]: 21 nM
- Maximum blood pressure change [2]: -16%
- IC50 [3]: 1.5 nM

SMILES: CCCCc1ncc(/C=C2/C(=O)N(CCCC)C(=O)N2Cc2csc(C)n2)n1Cc1ccc(C(=O)O)cc1
- IC50 [1]: 2.6 nM
- Maximum blood pressure change [2]: -34%
- IC50 [3]: 1.2 nM

SMILES: CCCCc1ncc(/C=C2/C(=O)N(CCCC)C(=O)N2Cc2ccc(C)cc2)n1Cc1ccc(C(=O)OC)cc1
- IC50 [3]: 34.6 nM

SMILES: CCCCCN1C(=O)N(CCCC)C(=O)/C1=C/c1cnc(CCCC)n1Cc1ccc(C(=O)OC)cc1
- IC50 [3]: 6.1 nM

SMILES: CCCCc1ncc(/C=C2\C(=O)NC(=O)N2CCCC)n1Cc1ccc(-c2ccccc2C(=O)OC)cc1
- IC50 [3]: 9.9 nM

SMILES: CCCCc1ncc(/C=C2/C(=O)N(CCCC)C(=O)N2Cc2csc(C)n2)n1Cc1ccc(C2(C(=O)O)CCCC2)cc1
- Maximum blood pressure change [2]: -16%
- IC50 [3]: 1.9 nM

SMILES: CCCCc1ncc(/C=C2\C(=O)NC(=O)N2CCCC)n1Cc1ccc(-c2ccccc2-c2nn[nH]n2)cc1
- IC50 [3]: 2.7 nM

SMILES: CCCCc1ncc(/C=C2/C(=O)N(CCCC)C(=O)N2Cc2cccc[n+]2[O-])n1Cc1ccc(C(=O)OC)cc1
- IC50 [3]: 260 nM

SMILES: CCCCCCN1C(=O)N(CCCC)C(=O)/C1=C/c1cnc(CCCC)n1Cc1ccc(C(=O)OC)cc1
- IC50 [3]: 40.2 nM

SMILES: CCCCc1ncc(/C=C2/C(=O)N(CCCC)C(=O)N2Cc2cc(C)on2)n1Cc1ccc(C(=O)OC)cc1
- IC50 [3]: 8.5 nM

SMILES: CCCCc1ncc(/C=C2/C(=O)NC(=O)N2Cc2cccs2)n1Cc1ccc(C(=O)OC)cc1
- IC50 [1]: 28 nM
- Maximum blood pressure change [2]: -19%
- IC50 [3]: 7.1 nM

SMILES: CCCCc1ncc(/C=C2/C(=O)N(CCCC)C(=O)N2Cc2cccs2)n1Cc1ccc(C(=O)O)cc1
- IC50 [1]: 13 nM
- Maximum blood pressure change [2]: -28%
- IC50 [3]: 0.7 nM

SMILES: CCCCc1ncc(/C=C2/C(=O)N(CCCC)C(=O)N2Cc2csc(Br)c2)n1Cc1ccc(C(=O)OC)cc1
- IC50 [3]: 25.4 nM

SMILES: CCCCc1ncc(/C=C2/C(=O)N(CCCC)C(=O)N2Cc2ccc([N+](=O)[O-])cc2)n1Cc1ccc(C(=O)OC)cc1
- IC50 [3]: 16.9 nM

SMILES: CCCCc1ncc(/C=C2/C(=O)N(CCCC)C(=O)N2Cc2ccc(C(=O)OC)cc2)n1Cc1ccc(C(=O)OC)cc1
- IC50 [3]: 14.3 nM

SMILES: CCCCCCN1C(=O)/C(=C/c2cnc(CCCC)n2Cc2ccc(C(=O)OC)cc2)N(Cc2csc(C)n2)C1=O
- IC50 [1]: > 100 nM
- Maximum blood pressure change [2]: -34%
- IC50 [3]: 5.3 nM

SMILES: CCCCc1ncc(/C=C2/C(=O)N(CCCC)C(=O)N2Cc2csc(C)n2)n1Cc1ccc(C2(C(=O)OC)CCCC2)cc1
- IC50 [3]: 8 nM

SMILES: CCCCc1ncc(/C=C2\C(=O)N(CCCC)C(=O)N2CCCC)n1Cc1ccc(C(=O)O)cc1
- IC50 [3]: 0.5 nM

SMILES: CCCCc1ncc(/C=C2/C(=O)NC(=O)N2CCC(C)C)n1Cc1ccc(C(=O)O)cc1
- IC50 [1]: 32 nM
- IC50 [3]: 6.6 nM

SMILES: CCCCc1ncc(/C=C2\C(=O)N(CCCC)C(=O)N2Cc2csc(N)n2)n1Cc1ccc(C(=O)O)cc1
- IC50 [3]: 0.5 nM

SMILES: CCCCc1ncc(/C=C2/C(=O)N(C)C(=O)N2Cc2csc(C)n2)n1Cc1ccc(C(=O)OC)cc1
- IC50 [3]: 16.6 nM

SMILES: CCCCc1ncc(/C=C2/C(=O)N(CCCC)C(=O)N2CCc2cccs2)n1Cc1ccc(C(=O)OC)cc1
- IC50 [3]: 14.5 nM

SMILES: CCCCc1ncc(/C=C2/C(=O)N(CC)C(=O)N2Cc2csc(C)n2)n1Cc1ccc(C(=O)OC)cc1
- IC50 [3]: 11.1 nM

SMILES: CCCCc1ncc(/C=C2/C(=O)N(CCCC)C(=O)N2Cc2c[nH]cn2)n1Cc1ccc(C(=O)OC)cc1
- IC50 [3]: 54.5 nM

SMILES: CCCCc1ncc(/C=C2/C(=O)N(CCCC)C(=O)N2Cc2ccc(C#N)cc2)n1Cc1ccc(C(=O)OC)cc1
- IC50 [3]: 11.1 nM

SMILES: CCCCc1ncc(/C=C2/C(=O)N(CCCC)C(=O)N2CCCC)n1Cc1ccc(-c2ccccc2C(=O)OC)cc1
- IC50 [3]: 29.6 nM

SMILES: CCCCc1ncc(/C=C2\C(=O)N(CCCC)C(=O)N2Cc2csc(C)n2)n1Cc1ccc(C(=O)O)cc1
- IC50 [3]: 1.7 nM

SMILES: CCCCc1ncc(/C=C2\C(=O)NC(=O)N2CCC(C)C)n1Cc1ccc(C(=O)O)cc1
- IC50 [1]: 74 nM
- IC50 [3]: 4.9 nM

SMILES: CCCCc1ncc(/C=C2/C(=O)N(CO)C(=O)N2Cc2csc(C)n2)n1Cc1ccc(C(=O)OC)cc1
- IC50 [3]: 35.7 nM

SMILES: CCCCc1ncc(/C=C2/C(=O)N(CCCC)C(=O)N2Cc2ccc(C(F)(F)F)cc2)n1Cc1ccc(C(=O)OC)cc1
- IC50 [3]: 159 nM

SMILES: CCCCc1ncc(/C=C2\C(=O)NC(=O)N2Cc2ccccc2)n1Cc1ccc(C(=O)O)cc1
- IC50 [1]: > 100 nM
- IC50 [3]: 3.4 nM

SMILES: CCCCc1ncc(/C=C2\C(=O)NC(=O)N2CCCC)n1Cc1ccc(NS(=O)(=O)C(F)(F)F)cc1
- IC50 [3]: 4.2 nM

SMILES: CCCCc1ncc(/C=C2/C(=O)N(CCCC)C(=O)N2Cc2sccc2C)n1Cc1ccc(C(=O)OC)cc1
- IC50 [3]: 23.9 nM

SMILES: CCCCc1ncc(/C=C2/C(=O)N(CCSC)C(=O)N2Cc2csc(C)n2)n1Cc1ccc(C(=O)OC)cc1
- IC50 [3]: 9.6 nM

SMILES: CCCCc1ncc(/C=C2/C(=O)N(CCCC)C(=O)N2CCCC(F)(F)F)n1Cc1ccc(C(=O)OC)cc1
- IC50 [3]: 6.4 nM

SMILES: CCCCc1ncc(/C=C2/C(=O)N(CCC)C(=O)N2Cc2csc(C)n2)n1Cc1ccc(C(=O)OC)cc1
- IC50 [3]: 9 nM
